The source made the active and inactive calls. No cut-off for these calls is given here.
What was measured:
THP-1 [1] = assay: Anti-inflammatory activity in human THP-1 cells assessed as decrease in LPS-induced P20 level at 1 to 10 uM pretreated for 1 hr followed by LPS/ATP treatment for 6 hrs by Western blot analysis; type: functional, cell-based; settings: dose 1-10 µM, time 7.0 hrs
Mus musculus [2] = assay: Anti-colitis activity in ICR mouse model assessed as reversal of DSS-induced splenomegaly at 15 to 60 mg/kg, IG treated for 9 days consecutively; type: functional, organism-based; settings: dose 15-60 mg/kg, time 9.0 day
[3] = Toxicity in ICR mouse assessed as change in spleen index at 300 mg/kg, IG measured for 9 days; type: organism-based; settings: in vivo, po, 216 h, time 9 day
Mus musculus [4] = assay: Anti-colitis activity in ICR mouse model assessed as […] DSS-induced colon length at 60 mg/kg, IG treated for 8 days consecutively in presence of DADA; type: functional, organism-based; settings: time 8.0 day
Mus musculus [5] = assay: Anti-colitis activity in ICR mouse model assessed as decrease in DSS-induced I-kappaB-alpha degradation in colon tissue at 60 mg/kg, IG treated for 8 days consecutively by Western blot analysis; type: functional, organism-based; settings: time 8.0 day
Mus musculus [6] = assay: Anti-colitis activity in ICR mouse model assessed as decrease in DSS-induced apoptosis in colon tissue at 15 to 60 mg/kg, IG treated for 8 days consecutively by H and E staining based analysis; type: functional, organism-based; settings: dose 15-60 mg/kg, time 8.0 day
Mus musculus [7] = assay: Anti-colitis activity in ICR mouse model assessed as […] DSS-induced colon length at 15 to 60 mg/kg, IG treated for 8 days consecutively; type: functional, organism-based; settings: dose 15-60 mg/kg, time 8.0 day
[8] = Toxicity in ICR mouse assessed as change in colon index at 300 mg/kg, IG measured for 9 days; type: organism-based; settings: in vivo, po, 216 h, time 9 day
[9] = Toxicity in ICR mouse assessed as change in lungs index at 300 mg/kg, IG measured for 9 days; type: organism-based; settings: in vivo, po, 216 h, time 9 day
[10] = Tmax in ICR mouse at 15 mg/kg, IG measured for 12 hrs by LC-MS/MS analysis; type: ADME, organism-based; settings: in vivo, po
Mus musculus [11] = assay: Anti-colitis activity in ICR mouse model assessed as decrease in DSS-induced inflammatory cell infiltration in colon tissue at 60 mg/kg, IG treated for 8 days consecutively in presence of DADA by H and E staining based analysis; type: functional, organism-based; settings: time 8.0 day
THP-1 [12] = assay: Anti-inflammatory activity in human THP-1 cells assessed as decrease in LPS-induced IL-6 level pretreated for 1 hr followed by LPS treatment for 24 hrs by ELISA; type: functional, cell-based; settings: dose 0.1-10 µM, time 25.0 hrs
THP-1 [13] = assay: cells; settings: Homo sapiens, THP-1, 24 h
Description: Cytotoxicity against human THP-1 cells assessed as inhibition of cell viability incubated for 24 hrs by CCK8 assay

[14] = MRT (0 to t) in […] administered as hydroxypropyl-beta-cyclodextrin at 20 mg/kg, IG measured for 12 hrs by LC-MS/MS analysis; type: ADME, organism-based; settings: in vivo, po
[15] = Stability in mouse plasma assessed as half life at 10 uM preincubated for 5 mins followed by NADPH addition measured for 10 to 480 mins by LC-MS/MS analysis; type: ADME, cell-free; settings: time 15-485 min
Mus musculus [16] = assay: Anti-colitis activity in ICR mouse model assessed as decrease in DSS-induced pyruvate carboxylase level at 60 mg/kg, IG treated for 8 days consecutively in presence of DADA; type: functional, organism-based; settings: time 8.0 day
[17] = Half life in ICR mouse at 15 mg/kg, IG measured for 12 hrs by LC-MS/MS analysis; type: ADME, organism-based; settings: ICR, in vivo, po
Mus musculus [18] = assay: Anti-colitis activity in ICR mouse model assessed as decrease in DSS-induced I-kappaB-alpha degradation in colon tissue at 60 mg/kg, IG treated for 8 days consecutively in presence of DADA by Western blot analysis; type: functional, organism-based; settings: time 8.0 day
THP-1 [19] = assay: Anti-inflammatory activity in LPS-treated human THP-1 cells assessed as decrease in phosphorylated I-kappaB-alpha level at 10 uM pretreated for 1 hr followed by LPS treatment for 6 hrs by Western blot analysis; type: functional, cell-based; settings: time 7.0 hrs
Mus musculus [20] = assay: Anti-colitis activity in ICR mouse model assessed as decrease in DSS-induced inflammatory cell infiltration in colon tissue at 15 to 60 mg/kg, IG treated for 8 days consecutively by H and E staining based analysis; type: functional, organism-based; settings: dose 15-60 mg/kg, time 8.0 day
[21] = Cmax in colon of ICR mouse at 15 mg/kg, IG measured for 12 hrs by LC-MS/MS analysis; type: ADME, organism-based; settings: po
[22] = Stability in mouse liver microsomes assessed as half life at 10 uM preincubated for 5 mins followed by NADPH addition measured for 10 to 480 mins by LC-MS/MS analysis; type: ADME, Microsome; settings: time 15-485 min
[23] = MRT (0 to t) in colon of ICR mouse at 15 mg/kg, IG measured for 12 hrs by LC-MS/MS analysis; type: ADME, organism-based; settings: po
Mus musculus [24] = assay: Anti-colitis activity in ICR mouse model assessed as decrease in DSS-induced P65 phosphorylation in colon tissue at 60 mg/kg, IG treated for 8 days consecutively by Western blot analysis; type: functional, organism-based; settings: time 8.0 day
Mus musculus [25] = assay: Anti-colitis activity in ICR mouse model assessed as decrease in DSS-induced pyruvate carboxylase level at 60 mg/kg, IG treated for 8 days consecutively; type: functional, organism-based; settings: time 8.0 day
THP-1 [26] = assay: Anti-inflammatory activity in human THP-1 cells assessed as decrease in LPS-induced pro-IL-1beta level at 1 to 10 uM pretreated for 1 hr followed by LPS/ATP treatment for 6 hrs by Western blot analysis; type: functional, cell-based; settings: dose 1-10 µM, time 7.0 hrs
[27] = AUC (0 to t) in ICR mouse at 15 mg/kg, IG measured for 12 hrs by LC-MS/MS analysis; type: ADME, organism-based; settings: in vivo, po
Mus musculus [28] = assay: Anti-colitis activity in ICR mouse model assessed as decrease in DSS-induced IL-6 level administered intragastrically treated for 8 days consecutively; type: functional, organism-based; settings: dose 15-60 mg/kg, route ig, time 8.0 day
[29] = Volume of distribution in ICR mouse at 15 mg/kg, IG measured for 12 hrs by LC-MS/MS analysis; type: ADME, organism-based; settings: in vivo, po
THP-1 [30] = assay: Anti-inflammatory activity in human THP-1 cells assessed as decrease in LPS-induced NLRP3 level at 1 to 10 uM pretreated for 1 hr followed by LPS/ATP treatment for 6 hrs by Western blot analysis; type: functional, cell-based; settings: dose 1-10 µM, time 7.0 hrs
Mus musculus [31] = assay: Anti-colitis activity in ICR mouse model assessed as decrease in DSS-induced DAI score at 15 to 60 mg/kg, IG treated for 8 days consecutively; type: functional, organism-based; settings: dose 15-60 mg/kg, time 8.0 day
THP-1 [32] = assay: Anti-inflammatory activity in human THP-1 cells assessed as decrease in LPS-induced IL-1beta level at 1 to 10 uM pretreated for 1 hr followed by LPS/ATP treatment for 6 hrs by Western blot analysis; type: functional, cell-based; settings: dose 1-10 µM, time 7.0 hrs
Mus musculus [33] = assay: Anti-colitis activity in ICR mouse model of DSS-induced colitis assessed as decrease in DAI score at 15 to 60 mg/kg, IG treated for 9 days consecutively; type: functional, organism-based; settings: dose 15-60 mg/kg, time 9.0 day
[34] = Volume of distribution in colon of ICR mouse at 15 mg/kg, IG measured for 12 hrs by LC-MS/MS analysis; type: ADME, organism-based; settings: in vivo, po
THP-1 [35] = assay: Anti-inflammatory activity in human THP-1 cells assessed as decrease in LPS-induced TNF-alpha level at 10 uM pretreated for 1 hr followed by LPS treatment for 24 hrs in presence of DADA by ELISA; type: functional, cell-based; settings: time 25.0 hrs

For `C=C(C)[C@@H]1CC[C@]2(C(=O)NCCCCCC(=O)OC)CC[C@]3(C)[C@H](CC[C@@H]4[C@@]5(C)CC[C@H](O[C@@H]6OC[C@H](O)[C@H](O)[C@H]6O[C@@H]6O[C@@H](C)[C@H](O)[C@@H](O)[C@H]6O)[C@@](C)(CO)[C@@H]5CC[C@]43C)[C@@H]12`, the Activity (THP-1 [1]) was “Active”, the Activity (Mus musculus [2]) was “Active” and the Activity [3] was “Non-Toxic”. The Activity (Mus musculus [4]) was “inactive”, the Activity (Mus musculus [5]) was “Active” and the Activity (Mus musculus [6]) was “Active”. For the same compound, the Activity (Mus musculus [7]) was “Active”, the Activity [8] was “Non-Toxic” and the Activity [9] was “Non-Toxic”. The Tmax [10] was 0.96 h, the Activity (Mus musculus [11]) was “inactive” and the Activity (THP-1 [12]) was “Dose-Dependent Effect”. The IC50 (THP-1 [13]) was ≥ 80 µM, the MRT last at 12 h [14] was 4.05 h and the half-life at 10 µM [15] was 1.14 min. For the same compound, the Activity (Mus musculus [16]) was “inactive”, the half-life [17] was 2.46 h and the Activity (Mus musculus [18]) was “inactive”. The Activity (THP-1 [19]) was “Active”, the Activity (Mus musculus [20]) was “Active” and the Cmax [21] was 1110 ng/mL. The t1/2 [22] was 6.46 min, the MRT last at 12 h [23] was 3.32 h and the Activity (Mus musculus [24]) was “Active”. For the same compound, the Activity (Mus musculus [25]) was “Active”, the Activity (THP-1 [26]) was “Active” and the AUCt [27] was 108.09 ng·h/mL. For the same compound, the Activity (Mus musculus [28]) was “Dose-Dependent Effect”, the Vd [29] was 2867.15 L/kg and the Activity (THP-1 [30]) was “Active”. The Activity (Mus musculus [31]) was “Active”, the Activity (THP-1 [32]) was “Active” and the Activity (Mus musculus [33]) was “Active”. For the same compound, the Vd [34] was 97.34 L/kg and the Activity (THP-1 [35]) was “inactive”.

From ChEMBL document CHEMBL5543173, “Discovery of a New Anti-Inflammatory Agent from Anemoside B4 Derivatives and Its Therapeutic Effect on Colitis by Targeting Pyruvate Carboxylase” (J Med Chem, 2024)
